Results reported in patent publication US20090029992A1, “SUBSTITUTED PYRAZOLE COMPOUNDS” (priority 2007, published 2009).

What was measured:
[1] = molecular target: T1, N-terminal GST-tagged recombinant human Flt3, residues 564-end (Homo sapiens, UniProt P36888); test: Flt3 kinase inhibition assay (33P-ATP filter assay); format: biochemical; conditions: 40 minutes at room temperature
T1 construct: recombinant human Flt3, residues 564-end; GST (N); purchased Upstate USA Inc, 706 Forest Street, Charlottesville, Va
T1 sequence (P36888 564-993 limits assumed): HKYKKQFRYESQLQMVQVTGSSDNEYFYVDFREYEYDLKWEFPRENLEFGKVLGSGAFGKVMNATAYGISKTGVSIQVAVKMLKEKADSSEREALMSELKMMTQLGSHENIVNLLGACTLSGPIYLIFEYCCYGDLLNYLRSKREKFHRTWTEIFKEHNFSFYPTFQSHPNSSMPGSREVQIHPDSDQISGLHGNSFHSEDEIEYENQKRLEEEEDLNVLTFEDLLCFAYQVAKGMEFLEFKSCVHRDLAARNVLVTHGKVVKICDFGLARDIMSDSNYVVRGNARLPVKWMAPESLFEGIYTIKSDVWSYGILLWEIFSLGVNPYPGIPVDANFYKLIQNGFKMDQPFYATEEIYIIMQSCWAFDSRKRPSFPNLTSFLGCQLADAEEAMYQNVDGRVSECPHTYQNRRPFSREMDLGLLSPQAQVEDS
Outline: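 Serial compound dilutions incubated 40 min at room temperature with 5-10 mU Flt3 kinase, 50 μM peptide substrate and [γ-33P]ATP/10 mM magnesium acetate, pH 7.0. Phosphoric acid stop, filter capture and scintillation counting; activity compared with uninhibited reactions.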

[2] = molecular target: T2, N-terminal His6-tagged recombinant human KDR, residues 790-end (Homo sapiens, UniProt P35968); test: KDR kinase inhibition assay (33P-ATP filter assay); format: biochemical
T2 construct: recombinant human KDR, residues 790-end; His6 (N); purchased Upstate USA Inc, 706 Forest Street, Charlottesville, Va
T2 sequence (P35968 790-1356 limits assumed): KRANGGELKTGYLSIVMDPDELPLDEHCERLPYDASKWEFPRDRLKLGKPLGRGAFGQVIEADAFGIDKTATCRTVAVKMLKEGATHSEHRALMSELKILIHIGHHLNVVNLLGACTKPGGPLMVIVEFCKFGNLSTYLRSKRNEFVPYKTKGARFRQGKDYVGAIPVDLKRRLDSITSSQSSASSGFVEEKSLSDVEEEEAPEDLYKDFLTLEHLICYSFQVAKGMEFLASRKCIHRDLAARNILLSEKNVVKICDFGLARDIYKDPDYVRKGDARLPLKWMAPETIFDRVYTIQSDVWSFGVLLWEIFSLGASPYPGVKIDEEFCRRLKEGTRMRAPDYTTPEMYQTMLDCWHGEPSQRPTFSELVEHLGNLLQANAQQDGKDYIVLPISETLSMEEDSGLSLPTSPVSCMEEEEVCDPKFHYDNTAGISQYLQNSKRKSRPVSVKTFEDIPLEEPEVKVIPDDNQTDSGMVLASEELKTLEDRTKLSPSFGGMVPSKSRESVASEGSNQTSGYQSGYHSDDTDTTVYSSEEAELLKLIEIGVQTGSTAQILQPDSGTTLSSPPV
Outline: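 His6-tagged human KDR (residues 790-end, 5-10 mU) with 0.33 mg/mL myelin basic protein in 8 mM MOPS pH 7.0, 0.2 mM EDTA, 10 mM magnesium acetate and [γ-33P]ATP; 40 min at room temperature. Stopped with phosphoric acid, filter-bound 33P counted; inhibition relative to no-inhibitor controls.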

[3] = group with IC50 greater than 100 nM

SMILES: Cc1cc(Nc2cc(N3CCN(C)CC3)nc(-c3cccc(OC(F)(F)F)c3)n2)n[nH]1 [Example 192, N-(5-methyl-1H-pyrazol-3-yl)-6-(4-methylpiperazin-1-yl)-2-(3-(trifluoromethoxy)phenyl)pyrimidin-4-amine]
- IC50 [1]: ≤ 100 nM
- IC50 [2, 3]: ≤ 1000 nM

SMILES: Cc1cc(Nc2cc(NC3CCOCC3)nc(-c3ccc4c(c3)OCO4)n2)n[nH]1 [Example 132, 2-(benzo[d][1,3]dioxol-5-yl)-N^4-(5-methyl-1H-pyrazol-3-yl)-N^6-(tetrahydro-2H-pyran-4-yl)pyrimidine-4,6-diamine]
- IC50 [1]: ≤ 100 nM
- IC50 ([2]; 40 minutes at room temperature): ≤ 100 nM

SMILES: Cc1ccc(-c2nc(Nc3cc(C)[nH]n3)cc(N3CCN(C)CC3)n2)cc1 [Compound 38, N-(5-methyl-1H-pyrazol-3-yl)-6-(4-methylpiperazin-1-yl)-2-p-tolylpyrimidin-4-amine]
- IC50 [1]: ≤ 100 nM
- IC50 ([2]; 40 minutes at room temperature): ≤ 100 nM

SMILES: Cc1cc(Nc2cc(NC3CCOCC3)nc(-c3cc(F)ccc3F)n2)n[nH]1 [Example 185, 2-(2,5-difluorophenyl)-N^4-(5-methyl-1H-pyrazol-3-yl)-N^6-(tetrahydro-2H-pyran-4-yl)pyrimidine-4,6-diamine]
- IC50 [1]: ≤ 100 nM
- IC50 ([2]; 40 minutes at room temperature): ≤ 100 nM

SMILES: Cc1cc(Nc2cc(N3CCN(C)CC3)nc(-c3ccc4ccccc4c3)n2)n[nH]1 [Example 135, N-(5-methyl-1H-pyrazol-3-yl)-6-(4-methylpiperazin-1-yl)-2-(naphthalen-2-yl)pyrimidin-4-amine]
- IC50 [1]: ≤ 100 nM
- IC50 ([2]; 40 minutes at room temperature): ≤ 100 nM

SMILES: COc1ccc(F)c(-c2nc(Nc3cc(C)[nH]n3)cc(N3CCN(C)CC3)n2)c1 [Example 197, 2-(2-fluoro-5-methoxyphenyl)-N-(5-methyl-1H-pyrazol-3-yl)-6-(4-methylpiperazin-1-yl)pyrimidin-4-amine]
- IC50 [1]: ≤ 100 nM
- IC50 ([2]; 40 minutes at room temperature): ≤ 100 nM

SMILES: Cc1cc(Nc2cc(N3CCN(C)CC3)nc(-c3cccc(C)c3C)n2)n[nH]1 [Example 179, 2-(2,3-dimethylphenyl)-N-(5-methyl-1H-pyrazol-3-yl)-6-(4-methylpiperazin-1-yl)pyrimidin-4-amine]
- IC50 [1]: ≤ 100 nM
- IC50 ([2]; 40 minutes at room temperature): ≤ 100 nM

SMILES: Cc1cc(Nc2cc(N3CCN(C)CC3)nc(-c3cc4ccccc4n3C)n2)n[nH]1 [Compound 2, 2-(1-methyl-1H-indol-2-yl)-N-(5-methyl-1H-pyrazol-3-yl)-6-(4-methylpiperazin-1-yl)pyrimidin-4-amine]
- IC50 [1]: ≤ 100 nM
- IC50 ([2]; 40 minutes at room temperature): ≤ 100 nM

SMILES: Cc1cc(Nc2cc(N3CCN(C)CC3)nc(-c3ccc4c(c3)OC(F)(F)O4)n2)n[nH]1 [Example 178, 2-(2,2-difluorobezo[d][1,3]dioxol-5-yl)-N-(5-methyl-1H-pyrazol-3-yl)-6-(4-methylpiperazin-1-yl)pyrimidin-4-amine]
- IC50 [1]: ≤ 100 nM
- IC50 [2, 3]: ≤ 1000 nM

SMILES: Cc1cc(Nc2cc(N3CCN(C)CC3)nc(-c3cccc(OCc4ccccc4)c3)n2)n[nH]1 [Example 188, 2-(3-(benzyloxy)phenyl)-N-(5-methyl-1H-pyrazol-3-yl)-6-(4-methylpiperazin-1-yl)pyrimidin-4-amine]
- IC50 [1]: ≤ 100 nM
- IC50 [2, 3]: ≤ 1000 nM

SMILES: CCc1ccccc1-c1nc(Nc2cc(C)[nH]n2)cc(N2CCN(C)CC2)n1 [Example 175, 2-(2-ethylphenyl)-N-(5-methyl-1H-pyrazol-3-yl)-6-(4-methylpiperazin-1-yl)pyrimidin-4-amine]
- IC50 [1]: ≤ 100 nM
- IC50 ([2]; 40 minutes at room temperature): ≤ 100 nM

SMILES: Cc1cc(Nc2cc(N3CCN(C)CC3)nc(-c3ccco3)n2)n[nH]1 [Compound 14, 2-(furan-2-yl)-N-(5-methyl-1H-pyrazol-3-yl)-6-(4-methylpiperazin-1-yl)-pyrimidin-4-amine]
- IC50 [1]: ≤ 100 nM
- IC50 [2, 3]: ≤ 1000 nM

SMILES: Cc1cc(Nc2cc(N3CCN(C)CC3)nc(-c3ccc(C#N)cc3)n2)n[nH]1 [Example 160, 4-(4-(5-methyl-1H-pyrazol-3-ylamino)-6-(4-methylpiperazin-1-yl)pyrimidin-2-yl)benzonitrile]
- IC50 [1]: ≤ 100 nM
- IC50 [2, 3]: ≤ 1000 nM

SMILES: Cc1cc(Nc2cc(N(C)CCN(C)C)nc(-c3cccc(Cl)c3)n2)n[nH]1 [Compound 49, 2-(3-chlorophenyl)-N^4-(2-(dimethylamino)ethyl)-N^4-methyl-N^6-(5-methyl-1H-pyrazol-3-yl)pyrimidine-4,6-diamine]
- IC50 [1]: ≤ 100 nM
- IC50 ([2]; 40 minutes at room temperature): ≤ 100 nM

SMILES: COc1cccc(-c2nc(Nc3cc(C)[nH]n3)cc(NC3CCOCC3)n2)c1 [Compound 29, 2-(3-methoxyphenyl)-N^4-(5-methyl-1H-pyrazol-3-yl)-N^6-(tetrahydro-2H-pyran-4-yl)pyrimidine-4,6-diamine]
- IC50 [1]: ≤ 100 nM
- IC50 ([2]; 40 minutes at room temperature): ≤ 100 nM

SMILES: CCc1ccccc1-c1nc(Nc2cc(C)[nH]n2)cc(NC2CCOCC2)n1 [Example 174, 2-(2-ethylphenyl)-N^4-(5-methyl-1H-pyrazol-3-yl)-N^6-(tetrahydro-2H-pyran-4-yl)pyrimidine-4,6-diamine]
- IC50 [1]: ≤ 100 nM
- IC50 [2, 3]: ≤ 1000 nM

SMILES: Cc1cc(Nc2cc(NCCN3CCOCC3)nc(-c3cc4ccccc4n3C)n2)n[nH]1 [Compound 5, 2-(1-methyl-1H-indol-2-yl)-N^4-(5-methyl-1H-pyrazol-3-yl)-N^6-(2-morpholinoethyl)pyrimidine-4,6-diamine]
- IC50 [1]: ≤ 100 nM
- IC50 [2, 3]: ≤ 1000 nM

SMILES: COCCN(C)c1cc(Nc2cc(C)[nH]n2)nc(-c2ccccc2)n1 [Example 171, N^4-(2-methoxyethyl)-N^4-methyl-N^6-(5-methyl-1H-pyrazol-3-yl)-2-phenyl pyrimidine-4,6-diamine]
- IC50 [1]: ≤ 100 nM
- IC50 ([2]; 40 minutes at room temperature): ≤ 100 nM

SMILES: Cc1cc(Nc2cc(N(C)CCN(C)C)nc(-c3ccccc3)n2)n[nH]1 [Compound 9, N^4-(2-(dimethylamino)ethyl)-N^4-methyl-N^6-(5-methyl-1H-pyrazol-3-yl)-2-phenylpyrimidine-4,6-diamine]
- IC50 [1]: ≤ 100 nM
- IC50 ([2]; 40 minutes at room temperature): ≤ 100 nM

SMILES: Cc1cc(Nc2cc(N3CCN(C)CC3)nc(-c3ccc(N(C)C)cc3)n2)n[nH]1 [Compound 85, 2-(4-(dimethylamino)prenyl)-N-(b-methyl-1H-pyrazol-3-yl)-6-(4-methylpiperazin-1-yl)pyrimidin-4-amine]
- IC50 [1]: ≤ 100 nM
- IC50 ([2]; 40 minutes at room temperature): ≤ 100 nM

SMILES: COCCNc1cc(Nc2cc(C)[nH]n2)nc(-c2ccccc2)n1 [Compound 10, N^4-(2-methoxyethyl)-N^6-(5-methyl-1H-pyrazol-3-yl)-2-phenylpyrimidine-4,6-diamine]
- IC50 [1]: ≤ 100 nM
- IC50 ([2]; 40 minutes at room temperature): ≤ 100 nM

SMILES: Cc1cc(Nc2cc(NC3CCOCC3)nc(-c3cc4cc(NS(=O)(=O)C5CC5)ccc4o3)n2)n[nH]1 [Example 156, N-(2-(4-(5-methyl-1H-pyrazol-3-ylamino)-6-(tetrahydro-2H-pyran-4-ylamino)pyrimidin-2-yl)benzofuran-5-yl)cyclopropanesulfonamide]
- IC50 [1]: ≤ 100 nM
- IC50 [2, 3]: ≤ 1000 nM

SMILES: Cc1cc(Nc2cc(NC3CCOCC3)nc(-c3ccc(Cl)cc3)n2)n[nH]1 [Compound 22, 2-(4-chlorophenyl)-N^4-(5-methyl-1H-pyrazol-3-yl)-N^6-(tetrahydro-2H-pyran-4-yl)pyrimidine-4,6-diamine]
- IC50 [1]: ≤ 100 nM
- IC50 [2, 3]: ≤ 1000 nM

SMILES: Cc1cc(Nc2cc(N3CCN(C)CC3)nc(-c3cccc(F)c3F)n2)n[nH]1 [Example 200]
- IC50 [1]: ≤ 100 nM
- IC50 ([2]; 40 minutes at room temperature): ≤ 100 nM

SMILES: Cc1cc(Nc2cc(N(C)CCN(C)C)nc(-c3cccc4ccoc34)n2)n[nH]1 [Example 205, 2-(benzofuran-7-yl)-N^4-(2-(dimethylamino)ethyl)-N^4-methyl-N^6-(5-methyl-1H-pyrazol-3-yl)pyrimidine-4,6-diamine]
- IC50 [1]: ≤ 100 nM
- IC50 [2, 3]: ≤ 1000 nM

SMILES: Cc1cc(Nc2cc(N3CCN(C)CC3)nc(-c3cccc(C(F)(F)F)c3)n2)n[nH]1 [Compound 101, N-(5-methyl-1H-pyrazol-3-yl)-6-(4-methylpiperazin-1-yl)-2-(3-(trifluoromethyl)phenyl)pyrimidin-4-amine]
- IC50 [1]: ≤ 100 nM
- IC50 [2, 3]: ≤ 1000 nM

SMILES: Cc1cc(Nc2cc(N3CCN(C)CC3)nc(-c3ccc(C(C)(C)C)cc3)n2)n[nH]1 [Compound 82, 2-(4-tert-butylphenyl)-N-(5-methyl-1H-pyrazol-3-yl)-6-(4-methylpiperazin-1-yl)pyrimidin-4-amine]
- IC50 [1]: ≤ 100 nM
- IC50 [2, 3]: ≤ 1000 nM

SMILES: Cc1ccc(C)c(-c2nc(Nc3cc(C)[nH]n3)cc(N3CCN(C)CC3)n2)c1 [Example 201, 2-(2,5-dimethylphenyl)-N-(5-methyl-1H-pyrazol-3-yl)-6-(4-methylpiperazin-1-yl)pyrimidin-4-amine]
- IC50 [1]: ≤ 100 nM
- IC50 [2, 3]: ≤ 1000 nM

SMILES: Cc1cc(Nc2cc(N3CCC(O)CC3)nc(-c3cc4ccccc4n3C)n2)n[nH]1 [Compound 3, 1-(6-(5-methyl-1H-pyrazol-3-ylamino)-2-(1-methyl-1H-indol-2-yl)pyrimidin-4-yl)piperidin-4-ol]
- IC50 [1]: ≤ 100 nM
- IC50 ([2]; 40 minutes at room temperature): ≤ 100 nM

SMILES: COCCN(C)c1cc(Nc2cc(C)[nH]n2)nc(-c2ccc3c(c2)OCO3)n1 [Example 153, 2-(benzo[d][1,3]dioxol-5-yl)-N^4-(2-methoxyethyl)-N^4-methyl-N^6-(5-methyl-1H-pyrazol-3-yl)pyrimidine-4,6-diamine]
- IC50 [1]: ≤ 100 nM
- IC50 [2, 3]: ≤ 1000 nM
